Several values for one entry are separate records, joined by “and”; a condition that tells them apart may be missing. Equal entries are not always repeated.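 Protocol summary: plate cells (96-well), add compound at 5 concentrations, incubate 48 h, interpolate endpoints linearly. Here, GI50 denotes the concentration required for 50% inhibition of growth. Definition used: TGI = concentration required for complete inhibition of growth.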
Legend:
Assay in all cases: DTP human tumour cell line panel, 48 h
[1] = system: SW-620 colon
[2] = system: SNB-19 CNS
[3] = system: OVCAR-8 ovarian
[4] = system: SK-OV-3 ovarian
[5] = system: SF-268 CNS
[6] = system: OVCAR-5 ovarian
[7] = system: MALME-3M melanoma
[8] = system: HCC-2998 colon
[9] = system: K-562 leukemia
[10] = system: NCI/ADR-RES ovarian

SMILES | TGI [1] [µM] | TGI [2] [µM] | TGI [3] [µM] | TGI [4] [µM] | TGI [5] [µM] | TGI [6] [µM] | TGI [7] [µM] | TGI [8] [µM] | TGI [9] [µM] | GI50 [2] [µM] | GI50 [3] [µM] | GI50 [4] | GI50 [5] [µM] | GI50 [6] | GI50 [7] [µM] | GI50 [8] [µM] | GI50 [9] [µM] | GI50 [10] [µM] | TGI [10] [µM] | GI50 [1] [µM]
CNS(=O)(=O)NNS(=O)(=O)c1ccc(Br)cc1 | > 100 | > 100 | > 100 | > 100 | > 100 | > 100 | > 100 | > 100 | > 100 | – | – | – | – | – | – | – | – | – | – | –
O=S(=O)(c1ccccc1)C1CN2OC1(S(=O)(=O)c1ccccc1)CC2c1ccc(Br)cc1 (centres undefined) | > 100 | > 100 | > 100 | > 100 | > 100 | > 100 | > 100 | > 100 | > 100 | – | – | – | – | – | – | – | – | – | – | –
CCCN1CN(C(C(=O)N[C@@H]2C(=O)N3C2SC(C)(C)C3C(=O)O)c2ccc(O)cc2)CSC1=S (some centres undefined) | – | > 100 | > 100 | > 100 | > 100 | > 100 | > 100 | – | > 100 | – | – | – | – | – | – | – | – | – | – | –
Cc1cc(C)nc(NS(=O)(=O)c2ccc(NC(=O)c3cccc4c(Nc5ccc(S(N)(=O)=O)cc5)c5ccccc5nc34)cc2)n1 | > 100 | > 100 | > 100 | 28.4 | > 67.4 | > 100 | 55.5 | 36.1 | > 67.6 | – | – | – | – | – | – | – | – | – | – | –
COc1c[c]([Hg][O]C(C)=O)c(OC)c(NC(=O)CC(C)=O)[c]1[Hg][O]C(C)=O | – | 12.3 | > 19.9 | 32.7 | 18.9 | 33.7 | 3 | 30.1 | 5.53 | 5.56 | 6.71 | 18.6 µM | 13.6 | 19.3 µM | 1.53 | 15.8 | 1.48 | – | – | –
Cc1ccc(S(=O)(=O)c2ccc(N)cc2)cc1 | > 100 | – | > 100 | > 100 | – | > 100 | > 100 | > 100 | > 100 | – | – | – | – | – | – | – | – | – | – | –
NC(=O)OCCn1cc(-c2nc(-c3c[nH]c4ncccc34)cs2)c2ccccc21 | 4.53 | 43.8 | – | 6.44 | 6.77 | 43.8 | – | 6.54 | 14 | 2.57 | – | 1.54 µM | 1.48 | 2.21 µM | – | 1.99 | 1.55 | 2.82 | > 100 | 1.3
CC(C)C(=O)NS(=O)(=O)c1ccccc1 | > 100 | > 100 | > 100 | > 100 | > 100 | > 100 | > 100 | > 100 | > 100 | – | – | – | – | – | – | – | – | – | – | –
NCCSc1nc(-c2ccccc2)c(-c2ccccc2)o1 | > 100 | > 100 | > 100 | > 100 | > 100 | > 100 | > 100 | – | > 100 | – | – | – | – | – | – | – | – | – | > 100 | –
CN1C(=O)/C(=C/c2c(Cl)n(C)c3ccccc23)c2ccccc21 | – | – | – | 2.91 | – | 3.25 | – | – | – | 6.84 | 5.49 | 4.84 µM and 1.57 µM | 9.2 | 3.61 µM and 1.85 µM | 7.07 | – | 3.15 | 1.92 | 5.17 | 5.07
CC(C)C(=O)Nc1nc2c(ncn2C2OC(CO)C(O)C2O)c(=O)[nH]1 (centres undefined) | > 100 | – | > 100 | > 100 | > 100 | > 100 | > 100 | > 100 | > 100 | – | – | – | – | – | – | – | – | – | – | –
O=Cc1ccc2c(c1-c1c(C=O)ccc3c1OCO3)OCO2 | > 100 | > 100 | > 100 | > 100 | > 100 | > 100 | > 100 | > 100 | > 100 | – | – | – | – | – | – | – | – | – | – | –
CC(C)N(C(=O)C12C3C4C1(I)C1C2C3(I)C41C(=O)N(C(C)C)C(C)C)C(C)C (centres undefined) | > 59.6 | > 100 | > 100 | > 100 | > 100 | > 100 | > 100 | > 100 | > 63.6 | – | – | – | – | – | – | – | – | – | – | –
COC1(OC)CC2C(=O)N(Cc3ccccc3)C1C=C2S(=O)(=O)c1ccccc1 (centres undefined) | 28.5 | 54.7 | 40.5 | > 100 | > 100 | – | 39.6 | 33.6 | 63.2 | – | – | – | – | – | – | – | – | – | – | –
Cc1cc(NS(=O)(=O)c2ccc(Nc3c4ccccc4nc4c(C(=O)N5CCN(CCO)CC5)ccc(Cl)c34)cc2)no1 | – | > 100 | > 100 | > 100 | > 100 | > 100 | > 100 | > 100 | > 100 | – | – | – | – | – | – | – | – | – | – | –
COc1ncc(-c2ccc3ncnc(Nc4cccc(Cl)c4)c3c2)cc1NS(=O)(=O)C1CC1 | > 100 | > 100 | > 100 | – | > 100 | – | – | > 100 | > 100 | 3.92 | 2.18 | – | 1.54 | – | – | > 100 | > 100 | 1.17 | > 100 | > 100
COC(=O)/C=C/c1c(CC=C(C)C)ncn1C | > 100 | > 100 | > 100 | > 100 | > 100 | > 100 | > 100 | > 100 | > 100 | – | – | – | – | – | – | – | – | – | – | –
COC(=O)[C@H]1C=C[C@@H](C)n2c(=O)c3cc4ccccc4cc3c(=O)n21 | > 100 | > 100 | > 100 | > 100 | > 100 | > 100 | > 100 | > 100 | > 100 | – | – | – | – | – | – | – | – | – | – | –
COc1cc2c(c(OC)c1OC)-c1ncc3cc4c(cc3c1C2)OCO4 | 60.5 | > 100 | 36.9 | 46.5 | – | > 100 | – | 48.1 | > 100 | > 100 | 13.9 | 21.9 µM | – | > 100 µM | – | 17.4 | 2.27 | 32.1 | > 100 | 18.6
O=C(/C=C/c1ccccc1Cl)NC1C=Nc2ccc([N+](=O)[O-])cc2NC1 (centres undefined) | 18.2 | > 100 | > 100 | > 100 | > 100 | > 100 | > 100 | > 100 | > 100 | – | – | – | – | – | – | – | – | – | – | –
O=P1(c2ccccc2)CCCCC1 | – | > 100 | > 100 | > 100 | – | > 100 | > 100 | > 100 | > 100 | – | – | – | – | – | – | – | – | – | – | –

Source: PubChem BioAssay (NCI)
